Measured values as given in patent US8133885B2, “Non steroidal glucocorticoid receptor modulators” (Merck Sharp & Dohme Corp., priority 2005, dated 2012).
Like-named read-outs stand apart in the source and are kept apart here.

Tests used:
LPS-induced TNFα = test: Inhibition of LPS-induced TNFα in serum of mice; format: in vivo; conditions: Mus musculus, read-out: ED50 for inhibition of LPS-induced TNFα
Description: The potency of compounds to inhibit inflammation was quantified in a model in which mice were treated with lipopolysaccharide (LPS). Anti-inflammatory effects were quantified as inhibition of LPS-induced TNFα (S. R. Hyde & R. E. McCallum, Infection & Immunity, 60; 976-982 (1992)). Mice were treated i.p. with 0.5 mg/kg LPS. […] 1½ hours after LPS induction, serum was collected and mice were sacrificed. TNFα levels in serum were quantified using a commercially available Elisa-kit according to the descriptions of the supplier.

[1] = target: T1, recombinant human-GR (GR) (Homo sapiens, UniProt P04150); test: Glucocorticoid Receptor Competitor Assay kit (PanVera), fluorescence polarisation binding; conditions: fluorescence polarisation competition with fluormone GS1 1 nM, GR 4 nM, 90 minutes room temperature
T1 construct: purchased PanVera
T1 sequence (P04150 1-777): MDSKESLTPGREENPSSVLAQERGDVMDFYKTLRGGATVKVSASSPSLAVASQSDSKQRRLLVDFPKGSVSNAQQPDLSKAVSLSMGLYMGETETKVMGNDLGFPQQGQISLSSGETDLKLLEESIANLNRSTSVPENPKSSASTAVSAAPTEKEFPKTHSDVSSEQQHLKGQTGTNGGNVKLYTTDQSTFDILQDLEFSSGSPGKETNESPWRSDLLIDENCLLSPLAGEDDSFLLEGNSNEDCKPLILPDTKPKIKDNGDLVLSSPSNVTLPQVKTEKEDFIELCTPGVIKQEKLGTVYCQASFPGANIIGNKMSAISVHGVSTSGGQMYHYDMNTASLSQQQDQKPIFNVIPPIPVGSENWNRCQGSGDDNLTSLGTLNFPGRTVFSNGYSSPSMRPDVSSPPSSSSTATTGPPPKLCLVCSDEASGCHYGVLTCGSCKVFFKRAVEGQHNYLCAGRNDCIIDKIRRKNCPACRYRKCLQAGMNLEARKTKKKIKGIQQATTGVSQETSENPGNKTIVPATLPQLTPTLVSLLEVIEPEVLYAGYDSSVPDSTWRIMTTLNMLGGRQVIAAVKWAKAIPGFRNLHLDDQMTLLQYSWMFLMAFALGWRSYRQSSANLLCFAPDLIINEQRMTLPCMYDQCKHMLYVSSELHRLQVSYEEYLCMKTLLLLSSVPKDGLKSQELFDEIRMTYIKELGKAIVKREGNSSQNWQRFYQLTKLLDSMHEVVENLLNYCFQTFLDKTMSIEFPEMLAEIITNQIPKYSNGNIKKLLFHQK
Description: The affinity of compounds was tested using a Glucocorticoid Receptor Competitor Assay kit (PanVera®). Components of the kit were thawed from −80° C. on ice (Fluormone GS1, recombinant human-GR (GR)) or at room temperature (GR screening buffer, stabilising peptide and DTT). 10 mM test compounds were manually diluted to 20 μM then serially diluted to a final concentration range of 10 μM to 0.1 nM using the BioMek 2000 (Beckman-Coulter) into a black walled 384 welled plate (Matrix technologies). In the following order: fluormone GS1 (1 nM final concentration) is added to all wells excluding the buffer control wells, GR (4 nM final concentration) is added to all wells except minimum and buffer control wells, cortisol (10 μM final concentration) is added to fluormone GS1 control wells only, buffer is added to all wells to a final volume of 40 μl. The plate is covered and incubated at room temperature with agitation for 90 minutes. Readings were taken using the Analyst (LJL) in fluorescence polarisation reading mode. The MilliP ratio is calculated from cps readings obtained in parallel and perpendicular mode. The percent effect of the bound ligand is calculated at each concentration and the dose response curves plotted allowing the EC50 to be calculated. […]

[2] = mice, 0.5 mg/kg LPS i.p., compound oral or subcutaneous 1 hour before LPS, serum 1½ hours after LPS

With `CN1c2ccccc2[C@@H]2C[C@@H](NC(=O)C(F)(F)F)CCN2c2ccc(C#N)cc21` (relative stereo) [Example 3, cis-N-(8-cyano-1,2,3,4,10,14b-hexahydro-10-methyldibenzo[b,f]pyrido[1,2-d][1,4]diazepin-2-yl)-2,2,2-trifluoroacetamide] as the compound, how does the ED50 (LPS-induced TNFα; [2]) read?
Its ED50 is 0.5 to 20 mg/kg.

With `CN1c2ccccc2[C@@H]2C[C@@H](NC(=O)C(F)(F)F)CCN2c2ccc([N+](=O)[O-])cc21` (relative stereo) [Example 2, cis-2,2,2-trifluoro-N-(1,2,3,4,10,14b-hexahydro-10-methyl-8-nitrodibenzo[b,f]pyrido[1,2-d][1,4]diazepin-2-yl)acetamide] as the compound, how does the ED50 (LPS-induced TNFα; [2]) read?
The ED50 was 0.5 to 20 mg/kg.

`CN1c2ccccc2[C@@H]2C[C@@H](NC(=O)C(Cl)Cl)CCN2c2ccc(C#N)cc21` (relative stereo) [Example 5, cis-2,2-dichloro-N-(8-cyano-1,2,3,4,10,14b-hexahydro-10-methyldibenzo-[b,f]pyrido[1,2-d][1,4]diazepin-2-yl)acetamide] was tested. Which ED50 (LPS-induced TNFα; [2]) did it give?
The ED50 was 0.5 to 20 mg/kg.

With `CC#C[C@]1(O)CC[C@H]2[C@@H]3CCC4=CC(=O)CCC4=C3[C@@H](c3ccc4c(c3)OCO4)C[C@@]21C` as the compound, how does the EC50 [1] read?
Its EC50 is 10 nM.

For `Cc1nnsc1C(=O)N[C@H]1CCN2c3ccc([N+](=O)[O-])cc3N(C)c3ccccc3[C@@H]2C1` (relative stereo) [Example 31, cis-N-(1,2,3,4,10,14b-hexahydro-10-methyl-8-nitrodibenzo[b,f]pyrido[1,2-d][1,4]diazepin-2-yl)-4-methyl-1,2,3-thiadiazole-5-carboxamide], which ED50 (LPS-induced TNFα; [2]) is on record?
Its ED50 is 0.5 to 20 mg/kg.

`CN1c2ccccc2[C@@H]2C[C@@H](NC(=O)C(F)(F)F)CCN2c2ccc(C(=O)Nc3ccccc3)cc21` (relative stereo) [Example 4, cis-1,2,3,4,10,14b-hexahydro-10-methyl-N-phenyl-2-(2,2,2-trifluoroacetylamino)dibenzo[b,f]pyrido[1,2-d][1,4]diazepine-8-carboxamide] was tested. Which ED50 (LPS-induced TNFα; [2]) did it give?
The ED50 was 0.5 to 20 mg/kg.

`C[C@]12C=CC(=O)C=C1CC[C@@H]1[C@@H]2[C@@H](O)C[C@@]2(C)[C@H]1CC[C@]2(O)C(=O)CO` [prednisolone, reference compound] was tested. Which ED50 (LPS-induced TNFα; [2]) did it give?
The ED50 was 0.5 mg/kg.

How did the ED50 (LPS-induced TNFα) turn out when `CN1c2ccccc2[C@@H]2C[C@@H](NC(=O)C(F)(F)F)CCN2c2cc(Cl)c(C#N)cc21` (relative stereo) [Example 9, cis-N-(7-chloro-8-cyano-1,2,3,4,10,14b-hexahydro-10-methyl-dibenzo-[b,f]pyrido[1,2-d][1,4]diazepin-2-yl)-2,2,2-trifluoroacetamide] was run?
Its ED50 is 0.5 to 20 mg/kg.
